Data published in patent publication US20250154198A1, “PEPTIDE INHIBITORS OF INTERLEUKIN-23 RECEPTOR” (Zealand Pharma A/S, priority 2021, published 2025).
Read-outs that look alike come from different tables or passages of the source. *1 amine or outer side, *2 acyl side, *3 side chain or, on linkers, in order; H or OH if unused. Where a SMILES comes first, the peptide text is derived from it. Bridges are numbered along the chain shown (N, C = ends). [ ]: non-standard residue; d: D form. Trp(6-F) = N[C@@H](Cc1c[nH]c2cc(F)ccc12)C(=O)O; Lys(N3) = [N-]=[N+]=NCCCC[C@H](N)C(=O)O; 2Nal = N[C@@H](Cc1ccc2ccccc2c1)C(=O)O; AEF = NCCOc1ccc(C[C@H](N)C(=O)O)cc1; X1 = O=C(Cc1ccc(CN[*:1])cc1)[*:2]; 3Pal = N[C@@H](Cc1cccnc1)C(=O)O; αMeL = CC(C)C[C@](C)(N)C(=O)O; CH2COCH2 = O=C(C[*:1])C[*:2]; Pra = C#CC[C@H](N)C(=O)O; Dab = NCC[C@H](N)C(=O)O

T1: human IL-23R (Homo sapiens, UniProt Q5VWK5)
T1 construct: UniProtKB—Q5VWK5, amino acids 22-629; secretion signal of the plasmid (Promega N1371); expressed in transfected cells
T1 sequence (Q5VWK5 22-629): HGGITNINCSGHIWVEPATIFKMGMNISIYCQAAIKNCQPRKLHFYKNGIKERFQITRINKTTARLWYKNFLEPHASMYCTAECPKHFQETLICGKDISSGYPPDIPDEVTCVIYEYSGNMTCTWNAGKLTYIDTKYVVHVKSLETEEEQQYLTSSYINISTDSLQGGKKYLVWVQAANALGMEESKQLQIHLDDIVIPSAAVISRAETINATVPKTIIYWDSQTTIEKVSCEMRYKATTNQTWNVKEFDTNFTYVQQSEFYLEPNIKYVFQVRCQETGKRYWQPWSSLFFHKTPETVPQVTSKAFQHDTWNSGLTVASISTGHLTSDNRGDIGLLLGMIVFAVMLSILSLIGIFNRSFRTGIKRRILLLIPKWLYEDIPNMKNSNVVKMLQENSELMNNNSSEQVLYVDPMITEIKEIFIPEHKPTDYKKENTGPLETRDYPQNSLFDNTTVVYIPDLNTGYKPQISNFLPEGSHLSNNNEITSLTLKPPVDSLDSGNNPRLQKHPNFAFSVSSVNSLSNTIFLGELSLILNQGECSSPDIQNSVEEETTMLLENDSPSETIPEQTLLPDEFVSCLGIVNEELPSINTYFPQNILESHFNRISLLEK

T2: Nluc-IL23R fusion protein (human, UniProt Q5VWK5 22-629)
T2 construct: range 22-629; Stably expressed in HEK293 cells; also called hIL-23R; human IL-23R fused to a Nanoluc luciferase enzyme; not shown: Nanoluc luciferase (Promega N1371 plasmid) at the N-terminus
T2 sequence (looked up): T1 sequence (Q5VWK5 22-629)

B1: Compound 33 (peptide)
peptide: Ac-CTCWECWW[αMeL]CS-NH2
modifications: linker 1-10, 3-6 via CH2COCH2
SMILES: CC(=O)N[C@H]1CSCC(=O)CSC[C@@H](C(=O)N[C@@H](CO)C(N)=O)NC(=O)[C@](C)(CC(C)C)NC(=O)[C@H](Cc2c[nH]c3ccccc23)NC(=O)[C@H](Cc2c[nH]c3ccccc23)NC(=O)[C@@H]2CSCC(=O)CSC[C@H](NC(=O)[C@H]([C@@H](C)O)NC1=O)C(=O)N[C@@H](Cc1c[nH]c3ccccc13)C(=O)N[C@@H](CCC(=O)O)C(=O)N2
B2: Compound 34 (peptide)
peptide: GKTCWECWWXES
HELM: PEPTIDE1{[ac].G.K.T.C.W.E.C.W.W.[CC(C)C[C@](C)(N[*:1])C(=O)[*:2]].E.S.[am]}|CHEM1{[O=C(C[*:1])C[*:2]]}$PEPTIDE1,PEPTIDE1,3:R3-12:R3|PEPTIDE1,CHEM1,5:R3-1:R1|PEPTIDE1,CHEM1,8:R3-1:R2$$$V2.0
SMILES: CC(=O)NCC(=O)N[C@H]1CCCCNC(=O)CC[C@@H](C(=O)N[C@@H](CO)C(N)=O)NC(=O)[C@](C)(CC(C)C)NC(=O)[C@H](Cc2c[nH]c3ccccc23)NC(=O)[C@H](Cc2c[nH]c3ccccc23)NC(=O)[C@@H]2CSCC(=O)CSC[C@H](NC(=O)[C@H]([C@@H](C)O)NC1=O)C(=O)N[C@@H](Cc1c[nH]c3ccccc13)C(=O)N[C@@H](CCC(=O)O)C(=O)N2

Columns and labels:
[1] = target: IL-23 mediated phospho-STAT3 formation in DB cells (Homo sapiens, UniProt Q5VWK5); test: Functional inhibition of IL-23 mediated STAT3 signalling (phospho-STAT3 Tyr705 MSD) in DB cells; type: cell-based; settings: DB cells, read-out: IC50 (pSTAT3)
Summary of the method: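 DB cells preincubated 15 min with compound at 37° C, then stimulated 90 min with hIL-23 at EC80. Lysate phospho-STAT3 measured by MSD, normalized to IL-23-alone and buffer wells; IC50 and maximal % inhibition from 4PL fit.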

[2] = Peptide stability in simulated intestinal fluid (SIF); type: in vitro ADME; settings: pig
Summary of the method: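 Peptides incubated at 37°C with gentle shaking in SGF (NaCl, HCl, pH 1.2) or SIF (phosphate pH 6.8 with 10 g/L porcine pancreatin). Samples analysed by LC-HRMS; percent remaining at each timepoint calculated from absolute peak areas relative to time zero.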

human IL-23R = target: T1, human IL-23R; test: Binding assay (NanoBRET displacement of fluorophore-labelled reference compound) for estimating binding affinity to human IL-23R; settings: for IL-23R inhibitory activity (in words): with reference to Ki and IC50 data of the Examples
[3] = Peptide stability in simulated gastric fluid (SGF); type: in vitro ADME; settings: pig
Procedure: Determination of Peptide Stability in Simulated Gastric Fluid (SGF) and Simulated Intestinal Fluid (SIF)
SGF was prepared by dissolving sodium chloride (0.2 g) in 50 mL of water. A volume of 0.7 mL of 10 M HCl was added to adjust the pH of the solution to 1.2 and the volume made up to 100 mL with water. […] SIF was prepared by dissolving monobasic potassium phosphate (0.68 g) in 50 mL of water and adjusting the pH to 6.8 with 1 M NaOH. The volume was subsequently made up to 100 mL with water. 200 mg porcine pancreatin (P1625, Sigma Aldrich) was gently dissolved into 20 mL preheated (37° C.) solution (10 g/L) immediately prior to the incubation.
The incubation was performed at 37° C. with gentle shaking. […] After the last timepoint, the sampling plate was mixed for 10 min on a shaking table and centrifuged 10 min at 2200 g. 70 μL resulting supernatant was diluted with 150 μL water, mixed and centrifugated before analysis by liquid chromatography high resolution mass spectrometry. […] Percent remaining at each timepoint was calculated relative to timepoint zero based on absolute peak areas.

[4] = target: T2, Nluc-IL23R fusion protein; test: BRET displacement of TAMRA-labelled peptide, Nluc-IL23R membranes
[5] = simulated intestinal fluid (SIF) with porcine pancreatin, Table 3-2, porcine pancreatin, pH 6.8, 37° C., 10 μM, 1 h, read-out: SIF (% remaining 1 h)
[6] = simulated intestinal fluid (SIF) with porcine pancreatin, Table 3-2, porcine pancreatin, pH 6.8, 37° C., 10 μM, 4 h, read-out: SIF (% remaining 4 h)
[7] = simulated gastric fluid (SGF) with porcine pepsin, Table 3-3, porcine pepsin, pH 1.2, 37° C., 10 μM, 1 h, read-out: SGF (% remaining 1 h)
[8] = simulated gastric fluid (SGF) with porcine pepsin, Table 3-3, porcine pepsin, pH 1.2, 37° C., 10 μM, 4 h, read-out: SGF (% remaining 4 h)
[9] = Table 3-1, read-out: Ki hIL-23R

Molecule	remaining at 1 h, 10 μM [2, 5] [%]	remaining at 4 h, 10 μM [2, 6] [%]	remaining at 1 h, 10 μM [3, 7] [%]	remaining at 4 h, 10 μM [3, 8] [%]	Ki (human IL-23R; [9]) [nM]	Ki [4] [nM]	also measured
CC(=O)N[C@@H](CC(=O)O)C(=O)N[C@H]1CCCCNC(=O)CC[C@@H](C(=O)N[C@@H](CCCNC(=N)N)C(N)=O)NC(=O)[C@H](CC(C)C)NC(=O)[C@H](Cc2c[nH]c3ccccc23)NC(=O)[C@H](Cc2c[nH]c3ccccc23)NC(=O)[C@@H]2CSCC(=O)CSC[C@H](NC(=O)[C@H](CO)NC1=O)C(=O)N[C@@H](Cc1c[nH]c3ccccc13)C(=O)N[C@@H](CCC(N)=O)C(=O)N2 [Compound 7, [Ac]-DK(1c)SC(2a)WQC(2a)WWLE(1c)R-[NH2]] (HELM PEPTIDE1{[ac].D.K.S.C.W.Q.C.W.W.L.E.R.[am]}|CHEM1{[O=C(C[*:1])C[*:2]]}$PEPTIDE1,PEPTIDE1,3:R3-12:R3|PEPTIDE1,CHEM1,5:R3-1:R1|PEPTIDE1,CHEM1,8:R3-1:R2$$$V2.0)	0	0	0	0			IC50 ([1]; Table 2-3b): 159 nM; potency depending on location of the amide bond in the [2,11] lactam bridge (in words) (human IL-23R; Compound 7 (amide closer to position 11) versus Compound 4 (closer to position 2), Table 2-3b): more active; Ki (human IL-23R; Table 2-3b, read-out: Ki IL-23R): 26.8 nM
CC(C)C[C@]1(C)NC(=O)[C@H](Cc2c[nH]c3cc(F)ccc23)NC(=O)[C@H](Cc2ccc(OCCN)cc2)NC(=O)[C@@H]2CSCC(=O)CSC[C@H](NC(=O)[C@H](CO)NC(=O)Cc3ccc(cc3)CNC(=O)CC[C@@H](C(=O)N[C@@H](CCN)C(=O)N[C@@H](Cc3cccnc3)C(N)=O)NC1=O)C(=O)N[C@@H](Cc1c[nH]c3ccccc13)C(=O)N[C@@H](CCC(N)=O)C(=O)N2 [Compound 121, [4-Aminomethyl-phenylacetyl](1c)*SC(2a)WQC(2a)[Y(2-aminoethoxy)][6-F-Trp][2-Me-Leu]E(1c)[Dab][3-(3-Pyridyl)-Ala]-[NH2]] ([X1]SCWQC[AEF][Trp(6-F)][αMeL]E[Dab][3Pal]-NH2; linker 3-6 via CH2COCH2; lactam N-10)					0.00954		remaining at 1 h, 10 μM ([2]; pH 6.8): 57%; remaining at 4 h, 10 μM ([2]; pH 6.8): 6%; remaining at 1 h, 10 μM ([3]; pH 1.2): 82%; remaining at 4 h, 10 μM ([3]; pH 1.2): 80%
CC(C)C[C@]1(C)NC(=O)[C@H](Cc2ccc3ccccc3c2)NC(=O)[C@H](Cc2ccc(OCCN)cc2)NC(=O)[C@@H]2CCCNC(=O)CC[C@H](NC(=O)[C@H](CO)NC(=O)Cc3ccc(cc3)CNC(=O)CC[C@@H](C(=O)N[C@@H](CCN)C(=O)N[C@@H](Cc3cccnc3)C(N)=O)NC1=O)C(=O)N[C@@H](Cc1c[nH]c3ccccc13)C(=O)N[C@@H](CCC(N)=O)C(=O)N2 [Compound 124, [4-Aminomethyl-phenylacetyl](1c)*SE(2c)WQ[Orn](2c)[Y(2-aminoethoxy)][2-Nal][2-Me-Leu]E(1c)[Dab][3-(3-Pyridyl)-Ala]-[NH2]]	35	0		89	0.0107		
CC(=O)N[C@@H](CC(=O)O)C(=O)N[C@H]1CCC(=O)NCCCC[C@@H](C(=O)N[C@@H](CCCNC(=N)N)C(N)=O)NC(=O)[C@H](CC(C)C)NC(=O)[C@H](Cc2c[nH]c3ccccc23)NC(=O)[C@H](Cc2c[nH]c3ccccc23)NC(=O)[C@@H]2CSCC(=O)CSC[C@H](NC1=O)C(=O)N[C@@H](Cc1c[nH]c3ccccc13)C(=O)N[C@@H](CCC(N)=O)C(=O)N2 [Ref 5, [Ac]-DE(1c)C(2a)WQC(2a)WWLK(1c)R-[NH2], reference compound] (HELM PEPTIDE1{[ac].D.E.C.W.Q.C.W.W.L.K.R.[am]}|CHEM1{[O=C(C[*:1])C[*:2]]}$PEPTIDE1,PEPTIDE1,3:R3-11:R3|PEPTIDE1,CHEM1,4:R3-1:R1|PEPTIDE1,CHEM1,7:R3-1:R2$$$V2.0)	0	0	1	0	> 1000		IC50 ([1]; Table 3-1): > 1000 nM; IL-23R inhibitory activity (in words) (human IL-23R): inactive
CC(=O)N[C@@H](CC(=O)O)C(=O)N[C@H]1CCC(=O)NCCCC[C@@H](C(=O)N[C@@H](CCCNC(=N)N)C(N)=O)NC(=O)[C@H](CC(C)C)NC(=O)[C@H](Cc2c[nH]c3ccccc23)NC(=O)[C@H](Cc2c[nH]c3ccccc23)NC(=O)[C@@H]2CSCC(=O)CSC[C@H](NC(=O)[C@H](CO)NC1=O)C(=O)N[C@@H](Cc1c[nH]c3ccccc13)C(=O)N2 [Ref 6, [Ac]-DE(1c)SC(2a)WC(2a)WWLK(1c)R-[NH2], reference compound] (HELM PEPTIDE1{[ac].D.E.S.C.W.C.W.W.L.K.R.[am]}|CHEM1{[O=C(C[*:1])C[*:2]]}$PEPTIDE1,PEPTIDE1,3:R3-11:R3|PEPTIDE1,CHEM1,5:R3-1:R1|PEPTIDE1,CHEM1,7:R3-1:R2$$$V2.0)	0	0	0	0	> 1000		IC50 ([1]; Table 3-1): > 1000 nM; IL-23R inhibitory activity (in words) (human IL-23R): inactive
B1						189	
B2						65	
Ac-DKS[Lys(N3)]WQ[Pra]W[2Nal]LER-NH2 (lactam 2-11; triazole 4-7) [Compound 23]						117	
H-DCSCWECWWLCR-NH2 (linker 2-11, 4-7 via CH2COCH2) [Compound 3]						205	
